pIC50: −log10 of the molar value.
molecular target: Recombinant human 5′-nucleotidase (hCD73) (Homo sapiens (Human), UniProt P21589); test: CD73 enzyme inhibition assay (hCD73, AMP substrate, PiColorLock Gold phosphate detection); assay type: biochemical; conditions: hCD73 1 nM solution, AMP 60 μM solution, 37° C. 20 min, absorbance 635 nm
Description: Test compound solution preparation: Stock solution of a test compound was prepared in DMSO at 10 mM concentration. A series of preset 10-concentration solutions of a test compound were prepared by diluting the stock solution in 5-fold gradient dilution with DMSO.
Assay buffer (lx): 20 mm Tris, 25 mM NaCl, 1 mM MgCl2, pH 7.5, 0.005% Tween-20 (freshly prepared, and ready for use).
An aliquot of 0.25 μL of compound solution or DMSO (blank control) was added to each test well of a micro well plate. Recombinant human 5′-nucleotidase (hCD73) was diluted to 1 nM in assay buffer; and an aliquot of 25 μL hCD73 (1 nM) solution was added to the corresponding wells of the plate. The contents of the well were well-mixed, and the plate was covered with sealing film, centrifuged at 1000 rpm for 30 sec., followed by incubation at room temperature for 15 min. AMP, the substrate, was diluted to 60 μM concentration in the assay buffer. To each reaction well was added 25 μL of AMP solution. After mixing well, the plate was covered with sealing film, centrifuged at 1000 rpm for 30 sec., and incubated at 37° C. for 20 min. The absorbance signal (end point) was measured on SPARK plate reader at 635 nm (See PiColorLock™ Gold Phosphate Detection System (Abcam) test kit for reference).
The reaction wells containing CD73 enzyme, substrate AMP and DMSO (no compound) were used as positive control, and the reaction wells containing substrate AMP and DMSO but no CD73 enzyme were used as negative control. The percent (%) inhibition at each concentration of compound was calculated based on and relative to the signal in the High and Low control wells contained within each assay plate. The High control wells were considered as 0% inhibition, and the low control wells, which didn't contain any compound but rather DMSO (final concentration=0.5%), as 100% inhibition. IC50 values were obtained using GraphPad Prism software.

Chain of Recombinant human 5′-nucleotidase (hCD73) (P21589 27-574): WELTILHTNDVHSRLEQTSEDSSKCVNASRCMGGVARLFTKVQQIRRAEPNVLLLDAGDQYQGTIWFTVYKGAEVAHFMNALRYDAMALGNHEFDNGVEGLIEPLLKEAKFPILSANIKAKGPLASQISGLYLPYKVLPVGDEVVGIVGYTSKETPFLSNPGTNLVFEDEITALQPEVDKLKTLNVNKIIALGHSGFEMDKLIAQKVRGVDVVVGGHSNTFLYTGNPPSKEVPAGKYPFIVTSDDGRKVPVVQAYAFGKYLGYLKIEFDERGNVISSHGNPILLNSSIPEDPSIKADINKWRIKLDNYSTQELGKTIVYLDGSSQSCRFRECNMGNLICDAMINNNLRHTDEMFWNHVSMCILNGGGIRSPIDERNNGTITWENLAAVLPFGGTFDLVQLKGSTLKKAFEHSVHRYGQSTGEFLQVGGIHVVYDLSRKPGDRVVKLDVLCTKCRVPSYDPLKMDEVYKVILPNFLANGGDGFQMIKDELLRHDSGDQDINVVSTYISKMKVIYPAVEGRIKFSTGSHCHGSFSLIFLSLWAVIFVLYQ

Compound	pIC50
O=P(O)(O)CP(=O)(O)OC[C@H]1O[C@@H](n2cnc3c(N4CCC5(CCCCC5)C4)nc(Cl)nc32)[C@@H](O)C1O (stereo partly shown) [Compound b, reference compound]	8.97
O=P(O)(O)CP(=O)(O)OC[C@H]1O[C@@H](n2cnc3c(N4CC(c5ccccc5)c5ccccc54)nc(Cl)nc32)[C@@H](O)C1O (stereo partly drawn) [Compound d-38]	8.72
O=P(O)(O)CP(=O)(O)OC[C@H]1O[C@@H](n2cnc3c(N4CC5(CCc6ccccc65)C4)nc(Cl)nc32)[C@@H](O)C1O (stereo partly drawn) [d-1]	9.33
O=P(O)(O)CP(=O)(O)OC[C@H]1O[C@@H](n2cnc3c(N4CC5(CCCCC5)c5ccccc54)nc(Cl)nc32)[C@@H](O)C1O (stereo partly drawn) [d-7]	8.74
O=P(O)(O)CP(=O)(O)OC[C@H]1O[C@@H](n2cnc3c(N4CCC5(CCc6ccccc65)C4)nc(Cl)nc32)[C@@H](O)C1O (stereo partly drawn) [d-8]	9.12
O=P(O)(O)CP(=O)(O)OC[C@H]1O[C@@H](n2cnc3c(N4CC5(Cc6ccccc6C5)C4)nc(Cl)nc32)[C@@H](O)C1O (stereo partly drawn) [d-9]	9.14
O=P(O)(O)CP(=O)(O)OC[C@H]1O[C@@H](n2cnc3c(N4CC(c5ccccc5)(c5ccccc5)C4)nc(Cl)nc32)[C@@H](O)C1O (stereo partly drawn) [d-35]	8.86
O=P(O)(O)CP(=O)(O)OC[C@H]1O[C@@H](n2cnc3c(N4CC(c5ccccc5)C(c5ccccc5)C4)nc(Cl)nc32)[C@@H](O)C1O (stereo partly drawn) [d-36]	8.73

molecular target: CD73 (Homo sapiens (Human), UniProt P21589); test: CD73 enzyme inhibition assay (Malachite Green Phosphate Detection Kit); assay type: biochemical; conditions: CD73 protein 0.5 μg/mL (2x), Tris-HCl pH 7.3, OD 620 nm; read-out: Potency (IC50 class), inhibitory activity in CD73 enzyme assay
Sequence (P21589 27-574): as above
Description: To evaluate the inhibitory effect of selected compounds on CD73, Malachite Green Phosphate Detection Kit (R&D, Cat #DY996) was used. Briefly, compounds were dissolved and diluted to the desired concentration using phosphate-free buffer (Tris-HCl, pH 7.3). 25 μL of the compound solution was added to an equal volume of CD73 protein solution (2× concentration, 0.5 μg/mL, Novoprotein, Cat #C446), followed by a 5-minute incubation at room temperature. 10 μL of Malachite Green Reagent A was added to each well, mixed thoroughly and incubated for 10 minutes at room temperature. 10 μL of Malachite Green Reagent B was then added to each well, mixed thoroughly and incubated for 20 minutes at room temperature. Finally, the optical density of each well was determined using a microplate reader set to 620 nm.

Compound	pIC50
O=P(O)(O)CP(=O)(O)OC[C@H]1O[C@@H](n2cnc3c(NCc4ccccc4)nc(Cl)nc32)[C@@H](O)C1O (stereo partly shown) [Compound 1]	> 8.00
CC1(C)OC2C(O1)[C@@H](COP(=O)(O)CP(=O)(O)O)O[C@H]2n1cnc2c(NCc3ccccc3)nc(Cl)nc21 (stereo partly shown) [Compound 2]	7.00 to 8.00
O=P(O)(O)CP(=O)(O)OC[C@H]1O[C@@H](n2cnc3c(NCc4cccc5ccccc45)nc(Cl)nc32)[C@@H](O)C1O (stereo partly shown) [Compound 6]	> 8.00
O=P(O)(O)CP(=O)(O)OC[C@H]1O[C@@H](n2cnc3c(NCc4ccc5ccccc5c4)nc(Cl)nc32)[C@@H](O)C1O (stereo partly shown) [Compound 7]	> 8.00
CCCCCOC(=O)Nc1nc(Cl)nc2c1ncn2[C@@H]1O[C@H](COP(=O)(O)CP(=O)(O)O)C(O)C1O (stereo partly shown) [Compound 8]	7.00 to 8.00
C[C@]12C[C@@H]3C[C@](C)(C1)C[C@@](Nc1nc(Cl)nc4c1ncn4[C@@H]1O[C@H](COP(=O)(O)CP(=O)(O)O)C(O)[C@@H]1O)(C3)C2 (stereo partly shown) [Compound 9]	> 8.00
O=P(O)(O)CP(=O)(O)OC[C@H]1O[C@@H](n2cnc3c(-n4c5ccccc5c5ccccc54)nc(Cl)nc32)C(O)C1O (stereo partly shown) [Compound 10]	7.00 to 8.00
CCCCC/C=C\C/C=C\CCCCCCCC(=O)Nc1nc(Cl)nc2c1ncn2[C@@H]1O[C@H](COP(=O)(O)CP(=O)(O)O)C(O)C1O (stereo partly shown) [Compound 11]	7.00 to 8.00
O=P(O)(O)CP(=O)(O)OC[C@H]1O[C@@H](n2cnc3c(Nc4ccc5ccccc5c4)nc(Cl)nc32)C(O)C1O (stereo partly shown) [Compound 12]	7.00 to 8.00
CCCCCCCCCCCCOC(=O)Nc1nc(Cl)nc2c1ncn2[C@@H]1O[C@H](COP(=O)(O)CP(=O)(O)O)C(O)[C@@H]1O (stereo partly shown) [Compound 15]	> 8.00
O=C(CC12CC3CC(CC(C3)C1)C2)Nc1nc(Cl)nc2c1ncn2[C@@H]1O[C@H](COP(=O)(O)CP(=O)(O)O)C(O)[C@@H]1O (stereo partly shown) [Compound 16]	7.00 to 8.00
O=P(O)(O)CP(=O)(O)OC[C@H]1O[C@@H](n2cnc3c(NC4C5CC6CC(C5)CC4C6)nc(Cl)nc32)[C@@H](O)C1O (stereo partly shown) [Compound 17]	> 8.00
CCCCCCCCCCCCNC(=O)Nc1nc(Cl)nc2c1ncn2[C@@H]1O[C@H](COP(=O)(O)CP(=O)(O)O)C(O)C1O (stereo partly shown) [Compound 18]	7.00 to 8.00
CCCCCCCCCCCCN(CCCCCCCCCCCC)c1nc(Cl)nc2c1ncn2[C@@H]1O[C@H](COP(=O)(O)CP(=O)(O)O)C(O)[C@@H]1O (stereo partly shown) [Compound 19]	< 7.00
O=P(O)(O)CP(=O)(O)OC[C@H]1O[C@@H](n2cnc3c(Nc4ccc5cc6ccccc6cc5c4)nc(Cl)nc32)C(O)C1O (stereo partly shown) [Compound 20]	7.00 to 8.00
O=P(O)(O)CP(=O)(O)OC[C@H]1O[C@@H](n2cnc3c(NC45CC6CC(CC(C6)C4)C5)nc(Cl)nc32)[C@@H](O)C1O (stereo partly shown) [Compound 22]	> 8.00
CC1(C)[C@@H]2CC[C@@]1(C)C(OC(=O)Cc1nc(Cl)nc3c1ncn3[C@@H]1O[C@H](COP(=O)(O)CP(=O)(O)O)C(O)C1O)C2 (stereo partly shown) [Compound 23]	7.00 to 8.00
O=P(O)(O)CP(=O)(O)OC[C@H]1O[C@@H](n2cnc3c(N4CCC5(CCCCC5)C4)nc(Cl)nc32)[C@@H](O)C1O (stereo partly shown) [Compound 31]	> 8.00
O=P(O)(O)CP(=O)(O)OC[C@H]1O[C@@H](n2cnc3c(N4C5CCC4CC(O)C5)nc(Cl)nc32)[C@@H](O)C1O (stereo partly shown) [Compound 51]	> 8.00

same assay, conditions: qualitative statement

Compound	inhibitory activity in the CD73 enzyme assay
O=P(O)(O)CP(=O)(O)CC[C@H]1O[C@@H](n2cnc3c(NCc4ccccc4)nc(Cl)nc32)[C@@H](O)C1O (stereo partly shown) [a-1]	showed inhibitory activity
C[C@]12C[C@@H]3C[C@](C)(C1)C[C@@](Nc1nc(Cl)nc4c1ncn4[C@@H]1O[C@H](CCP(=O)(O)CP(=O)(O)O)C(O)[C@@H]1O)(C3)C2 (stereo partly shown) [a-9]	showed inhibitory activity
O=P(O)(O)CP(=O)(O)CC[C@H]1O[C@@H](n2cnc3c(N4CCC5(CCCCC5)C4)nc(Cl)nc32)[C@@H](O)C1O (stereo partly shown) [a-31]	showed inhibitory activity

system: not listed separately; test: Pharmacokinetic evaluation in ICR mice, intravenous; assay type: in vivo; conditions: mouse; ICR male mice, 1.0 mg/kg intravenous, plasma
Description: A test compound (1.0 mg/kg) was administered to fasted ICR male mice via intravenous injection, and blood samples were collected at time points of 0.08, 0.25, 0.5, 1, 2, 4, 6, 8 and 24 h after the administration. Plasma sample was separated by centrifugation (8000 rpm) and stored at −80° C. until the sample was analyzed. Concentrations of the test compound in the plasma were determined by HPLC-MS/MS: the plasma was dispensed into appropriate tubes containing internal standard and methanol or acetonitrile. The tubes were mixed vigorously for 3 minutes to achieve deproteinization and then centrifuged at 8000 rpm for 5 minutes. The supernatant was transferred to an autosampler vial, injected into the chromatographic system, and quantified on MS/MS detector. Pharmacokinetic parameters including AUC0-t, Cmax, Tmax, t1/2, MRT, Cl and Vd were calculated using WinNonlin 6.3 software. Table 3 summarizes key PK parameters for test compounds (AUC(0-t): the area under the curve from time 0 to time t; AUC(0-∞): the area under the curve from time 0 to infinity; t1/2: Half-life; CL: clearance; C0: the concentration of drug in blood if the drug molecules enter the circulation and are distributed immediately (i.e., at time 0)).

Compound	AUC(0-inf) [ng·h/mL]	AUC(0-t) [ng·h/mL]	Cmax [ng/mL]	half-life [h]
C[C@H](Nc1cc(Cl)nc2c1cnn2[C@@H]1O[C@H](COP(=O)(O)CP(=O)(O)O)[C@@H](O)[C@H]1O)c1ccccc1F [Compound a, AB680, reference compound]	24200	24000	11700	3.41
O=P(O)(O)CP(=O)(O)OC[C@H]1O[C@@H](n2cnc3c(N4CCC5(CCCCC5)C4)nc(Cl)nc32)[C@@H](O)C1O (stereo partly shown) [Compound b, reference compound]	9120	9110	15200	0.85
O=P(O)(O)CP(=O)(O)OC[C@H]1O[C@@H](n2cnc3c(N4CC5(CCc6ccccc65)C4)nc(Cl)nc32)[C@@H](O)C1O (stereo partly drawn) [d-1]	6360	6360	8850	0.556
O=P(O)(O)CP(=O)(O)OC[C@H]1O[C@@H](n2cnc3c(N4CCC5(CCCc6ccccc65)C4)nc(Cl)nc32)[C@@H](O)C1O (stereo partly drawn) [d-6]	6680	6670	7840	0.841
O=P(O)(O)CP(=O)(O)OC[C@H]1O[C@@H](n2cnc3c(N4CC5(CCCCC5)c5ccccc54)nc(Cl)nc32)[C@@H](O)C1O (stereo partly drawn) [d-7]	197000	107000	12500	21.3
O=P(O)(O)CP(=O)(O)OC[C@H]1O[C@@H](n2cnc3c(N4CC5(Cc6ccccc6C5)C4)nc(Cl)nc32)[C@@H](O)C1O (stereo partly drawn) [d-9]	22500	19700	10700	2.95
O=P(O)(O)CP(=O)(O)OC[C@H]1O[C@@H](n2cnc3c(N4CC5(CCCCCC5)c5ccccc54)nc(Cl)nc32)[C@@H](O)C1O (stereo partly drawn) [d-22]	167000	74100	8030	28.9
